This note sets out measurements from patent US11518777B2, “Inhibitors of the shikimate pathway” (Eberhard Karls Universität Tübingen, priority 2017, dated 2022).

The subject of one test is A. thaliana. Put plainly: Germination and seedling size of A. thaliana on agar containing inhibitor. Particulars: for root and cotyledons formation: 260 μM (glyphosate equimolar).
The next test concerns Legionella. It counts as cell-based. The settings on record: natural water samples, 37° C., after ten days.

As to `C[C@@H](O)[C@@H](O)[C@@H](O)[C@H](O)C(=O)CO` [7dSh, 7-deoxy-D-altro-heptulose], the “gravitropism of the seedlings” value in the test on A. thaliana (260 μM) was “impaired in gravitropism”. Moreover, in the test on A. thaliana, the “root and cotyledons formation” value was “only minor root and cotyledons formation was observed”. In the test with A. thaliana (260 μM, 7 days of germination), the “size of the seedlings” value was approximately 2 mm and the “size of the seedlings compared to the control” value was “three times lower”. In addition, the germination process entry in the test with A. thaliana (130-260 μM) is “came to an arrest within the first days”. In the test on A. thaliana (concentrations higher than 130 μM (~25 μg/mL)), the “inhibitory capacity on A. thaliana compared to glyphosate (seedling-size and morphological appearance)” value is listed as “significant increased inhibitory capacity”. For the same compound, the “growth inhibitory effects on A. thaliana” value in the test on A. thaliana (concentrations up to 50 μM, 7 days of germination) was “comparable to glyphosate”. For the same compound, in the test with Legionella, the “number of CFUs of Legionella, times lower compared to the control” value is on record as 4-5 times lower.
For the compound `O=C(O)CNCP(=O)(O)O` [glyphosate, reference compound], the “root and cotyledons formation” value in the test with A. thaliana is “developed further and showed more distinct root and cotyledons formation”.
